The values that follow are results of earlier work, collected in patent publication US5780494A, “Piperidinyl-terminated alkylamino ethynl alanine amino diol compounds for treatment of hypertension” (G. D. Searle & Co., priority 1997, dated 1998).

Square brackets hold non-standard residues; d marks the D form. Peptide text beside a SMILES is read from it. * marks the point of attachment. Sta = CC(C)C[C@H](N)[C@@H](O)CC(=O)O; Isovaleryl = CC(C)CC(=O)*

One data set relates to hog renin. The following applies: after the injection of hog renin into nephrectomized rats.

In the case of `CC(C)CC(=O)N[C@H](C(=O)N[C@H](C(=O)N[C@@H](CC(C)C)[C@@H](O)CC(=O)N[C@@H](C)C(=O)N[C@@H](CC(C)C)[C@@H](O)CC(=O)O)C(C)C)C(C)C` [pepstatin] (Isovaleryl-VV[Sta]A[Sta]-OH), the blood pressure reduction result with hog renin is recorded as “found to reduce blood pressure”. In addition, the inhibition of renin result in the data set with renin is reported as “inhibitor”. The “inhibition of cathepsin D” value with cathepsin D was “inhibitor”. Further, the inhibition of pepsin result in the data set on pepsin is recorded as “inhibitor”.
